The text below walks through data of PMC9272661 (Antiviral Research, 2022).

Entries after “also recorded” stand apart in the source; their conditions may differ. Where two headings read alike, the source gives them in different places. Some results are limits rather than exact numbers.

One series deals with 3CLpro. The note with it: read-out: reported IC50; reported value, no reference given; cited from earlier work.
The next series has as its system SARS-CoV-2. The series is described as follows: microbe, parasite or virus in culture. The class given is cell-based, SARS-CoV-2 (strain 2019-nCoV/USA_WA1/2020).
A further series can be described thus: Cytotoxicity. Format: cell-based.
In another series the test system is SARS-CoV. The note with it: cited from earlier work.
The next series deals with SARS-CoV 3CLpro (Severe acute respiratory syndrome coronavirus, UniProt P0C6X7). The class given is biochemical.
Setting [1] is: Severe acute respiratory syndrome coronavirus 2, 48 h.

On to `CC(C)(C)NC(=O)[C@@H](c1cccnc1)N(C(=O)c1ccco1)c1ccc(C(C)(C)C)cc1` [ML-188], for which, in the series on 3CLpro, the half-maximal inhibitory concentration (IC50) (in general, the concentration that inhibits the measured activity by half) is ~2000 nM.

Turning to `CC(C)[C@H](NC(=O)c1cc(Cl)ccc1O)C(=O)Nc1ccc(F)c(F)c1` [JMX0681], it took 9750 nM to reach a half-maximal effect with SARS-CoV-2 (EC50).

As to `CC(C)[C@H](NC(=O)c1cc(Cl)ccc1O)C(=O)Nc1cc(C(F)(F)F)cc(C(F)(F)F)c1` [JMX0679], in the series on SARS-CoV-2, the EC50 (usually the concentration at which the effect is half-maximal) was 2510 nM.

As for `O=C(Nc1cc(C(F)(F)F)cc(C(F)(F)F)c1)c1cccc([N+](=O)[O-])c1O` [JMX0330, N-(3,5-Bis(trifluoromethyl)phenyl)-2-hydroxy-3-nitrobenzamide], in the series “Cytotoxicity”, half-maximal cytotoxicity (CC50 at 48 h) was put at 10.2 µM. Further, the EC50 is 498 nM in the series on SARS-CoV-2 (setting [1]) and “sub-micromolar” with SARS-CoV-2 (listed as JMX0320).

Regarding `CCC(C)[C@H](NC(=O)c1cc(Cl)ccc1O)C(=O)Nc1ccc([N+](=O)[O-])cc1Cl` (stereo partly drawn) [JMX0673], in the series on SARS-CoV-2, the EC50 is 1740 nM.

Consider `CC(C)[C@H](NC(=O)c1cc(Cl)ccc1O)C(=O)Nc1ccc(C(F)(F)F)cc1Cl` [JMX0672], for which, in the series on SARS-CoV-2, the half-maximal effective concentration (EC50) is 1920 nM.

Turning to `O=C(Nc1ccc(F)c(F)c1)c1cc(Cl)ccc1O` [JMX0321], a half-maximal effect with SARS-CoV-2 (EC50) was put at 1190 nM.

As for `CC(C)C[C@H](NC(=O)c1cc(Cl)ccc1O)C(=O)Nc1ccc([N+](=O)[O-])cc1Cl` [JMX0671], the EC50 in the series on SARS-CoV-2 came to 1560 nM.

Take `CC(C)(C)OC(=O)NCCOc1ccc(Cl)cc1C(=O)NCC(=O)Nc1ccc([N+](=O)[O-])cc1Cl` [JMX0301, Tert-Butyl (2-(4-chloro-2-((2-((2-chloro-4-nitrophenyl)amino)-2-oxoethyl)carbamoyl)phenoxy)ethyl)carbamate]: the “SARS-CoV-2 3CLpro EC50” value in the series with SARS-CoV-2 (Table 2, cell-based antiviral assay, SARS-CoV-2 viral replication) was “No Dose response”.

Take `O=C(Nc1cc(F)cc(C(F)(F)F)c1)c1cccc([N+](=O)[O-])c1O` [JMX0317, N-(3-Fluoro-5-(trifluoromethyl)phenyl)-2-hydroxy-3-nitrobenzamide]: in the series “Cytotoxicity”, half-maximal cytotoxicity (CC50 at 48 h) was put at 11.7 µM. The same molecule registered an EC50 in the series on SARS-CoV-2 (setting [1]) of 4030 nM.

The molecule `CC(C)[C@H](NC(=O)c1cc(Cl)ccc1O)C(=O)Nc1cc(F)cc(C(F)(F)F)c1` [JMX0680] had an EC50 in the series on SARS-CoV-2 of 4570 nM.

In the series with SARS-CoV-2, `O=C(Nc1cc(F)cc(C(F)(F)F)c1)c1cc(Cl)ccc1O` [JMX0312] yielded a 50% effective concentration (EC50) of 1130 nM.

In the case of `C[C@H](NC(=O)c1cc(Cl)ccc1O)C(=O)Nc1ccc([N+](=O)[O-])cc1Cl` [JMX0674], the concentration giving a half-maximal response (EC50) in the series with SARS-CoV-2 came to 9750 nM.

With `Cl.NCCOc1ccc(Cl)cc1C(=O)NCC(=O)Nc1ccc([N+](=O)[O-])cc1Cl` [JMX0286, 2-(2-Aminoethoxy)-5-chloro-N-(2-((2-chloro-4-nitrophenyl)amino)-2-oxoethyl)benzamide hydrochloride], half-maximal cytotoxicity in “Cytotoxicity” (CC50 at 48 h) was put at 3.78 µM. This molecule displayed an EC50 in the series with SARS-CoV-2 (setting [1]) of 2250 nM.

Regarding `O=C(Nc1ccc(C(F)(F)F)cc1Cl)c1cccc([N+](=O)[O-])c1O` [JMX0310, N-(2-Chloro-4-(trifluoromethyl)phenyl)-2-hydroxy-3-nitrobenzamide], it took 10.1 µM to reach half-maximal cytotoxicity in “Cytotoxicity” (CC50 at 48 h). In the series with SARS-CoV-2 (setting [1]), this molecule had a 50% effective concentration (EC50) of 2410 nM.

Molecule `O=C(Nc1ccc([N+](=O)[O-])cc1Cl)c1cccc([N+](=O)[O-])c1O` [JMX0207] came in with a concentration giving a half-maximal response (EC50) in the series with SARS-CoV-2 of 1220 nM.

For `CC(C)(C)NC(=O)N[C@H](C(=O)N1C[C@H]2[C@@H]([C@H]1C(=O)NC(CC1CCC1)C(=O)C(N)=O)C2(C)C)C(C)(C)C` (stereo partly drawn) [Boceprevir, boceprevir, reference compound], the EC50 in the series on SARS-CoV-2 (Severe acute respiratory syndrome coronavirus 2, read-out: SARS-CoV-2 3CLpro EC50, Table 2, cell-based antiviral assay, SARS-CoV-2 viral replication) came out at 15600 nM.

With `CC(C)[C@H](NC(=O)c1cc(Cl)ccc1O)C(=O)Nc1ccc([N+](=O)[O-])cc1Cl` [JMX0281], the concentration giving a half-maximal response (EC50) with SARS-CoV-2 was determined as 2080 nM.

Turning to `O=C(NC(Cc1ccccc1)C(=O)Nc1ccc([N+](=O)[O-])cc1Cl)c1cc(Cl)ccc1O` (stereo not drawn) [JMX0285], in the series on SARS-CoV-2, the EC50 turned out to be 3030 nM.

As to `O=C(Nc1ccc([N+](=O)[O-])cc1Cl)c1cc(Cl)ccc1O` [niclosamide], the “Concentration suppressing the cytopathic effect (CPE) of SARS-CoV” value in the series with SARS-CoV was 1 µM. Moreover, in the series with SARS-CoV (read-out: EC50 of SARS-CoV replication), the concentration giving a half-maximal response (EC50) is < 100 nM. For the same molecule, the “Inhibitory activity against SARS-CoV 3CLpro” value at SARS-CoV 3CLpro was “does not inhibit; also recorded: no obvious inhibitory activity”.
